Molecular target: T1, FAAH (Mus musculus, UniProt O08914)
T1 construct: For gel based ABPP experiments mouse brain proteome (2.0 mg/mL, 20 µL) was preincubated; from tissue; host or cells: mouse brain proteome
T1 sequence (O08914 1-579): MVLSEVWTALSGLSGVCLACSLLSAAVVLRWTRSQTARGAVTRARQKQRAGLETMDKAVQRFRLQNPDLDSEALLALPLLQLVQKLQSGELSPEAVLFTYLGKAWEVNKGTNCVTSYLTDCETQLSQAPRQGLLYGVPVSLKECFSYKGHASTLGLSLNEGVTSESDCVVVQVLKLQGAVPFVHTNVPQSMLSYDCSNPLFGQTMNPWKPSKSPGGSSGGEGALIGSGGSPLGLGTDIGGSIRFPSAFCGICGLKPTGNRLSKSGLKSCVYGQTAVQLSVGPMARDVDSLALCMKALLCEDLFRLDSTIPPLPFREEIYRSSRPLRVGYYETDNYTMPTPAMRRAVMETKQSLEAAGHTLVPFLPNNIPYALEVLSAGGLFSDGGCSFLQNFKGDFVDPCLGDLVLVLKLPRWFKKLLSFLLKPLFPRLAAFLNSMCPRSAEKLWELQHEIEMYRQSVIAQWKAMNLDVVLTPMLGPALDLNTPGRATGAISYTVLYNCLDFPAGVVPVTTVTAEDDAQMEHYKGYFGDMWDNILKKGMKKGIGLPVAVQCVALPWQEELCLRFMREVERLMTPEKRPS
Test: Gel based competitive ABPP selectivity assay with TAMRA-FP in mouse brain proteome (FAAH band)
Assay type: biochemical
Details: 10 µM inhibitor; TAMRA-FP 500 nM; mouse brain proteome; vehicle set to 100%
Protocol: For gel based ABPP experiments mouse brain proteome (2.0 mg/mL, 20 µL) was preincubated for 30 min with vehicle (DMSO) or compound to be tested in 0.5 µL DMSO at rt. And subsequently treated with 500 nM (final concentration) TAMRA-FP (TAMRA-FP was bought at Thermo Fischer) for 15 minutes at rt. The reactions were quenched with 10 µL standard 3 x SDS page sample buffer. The samples were directly loaded and resolved on SDS page gel (10 % acrylamide). The gels were scanned with a ChemiDoc MP sytem (Biorad, Cy 3 settings, 605/50 filter) and analyzed using Image Lab 4.1.
The percentage effect on FAAH was determined by measuring the integrated optical intensity of the band corresponding to FAAH (∼ 63 kD for mouse) using Image lab software. This activity was corrected for the total protein loading per lane as determined by coomassie staining and imaging with a ChemiDoc™ MP sytem (Biorad) followed by determination of the integrated optical intensity per lane by using Image Lab 4.1 software. The intensity of the protein bands from the samples treated with vehicle was set to 100%. […] N/A means less than 50% probe displacement at 10 µM inhibitor concentration.

Row | SMILES | FAAH ABPP (10 µm) % Eff.
1 | Cc1ccc(-c2cnc3nc(C(=O)CCc4ccccc4)oc3c2)cc1 [Compound 35, 3-phenyl-1-(6-(p-tolyl)oxazolo[4,5-b]pyridin-2-yl)propan-1-one] | N/A (N/A means less than 50% probe displacement at 10 µM inhibitor concentration)
2 | O=C(CCCCCc1ccccc1)c1nc2ncc(-c3cccs3)cc2o1 [Compound 44, 6-phenyl-1-(6-(thiophen-2-yl)oxazolo[4,5-b]pyridin-2-yl)hexan-1-one] | N/A (N/A means less than 50% probe displacement at 10 µM inhibitor concentration)
3 | Cc1cccc(-c2cnc3nc(C(=O)CCCCCc4ccccc4)oc3c2)c1 [Compound 55, 6-phenyl-1-(6-(m-tolyl)oxazolo[4,5-b]pyridin-2-yl)hexan-1-one] | N/A (N/A means less than 50% probe displacement at 10 µM inhibitor concentration)
4 | O=C(CCCCCc1ccccc1)c1nc2ncc(-c3cccc(Cl)c3)cc2o1 [Compound 39, 1-(6-(3-chlorophenyl)oxazolo[4,5-b]pyridin-2-yl)-6-phenylhexan-1-one] | N/A (N/A means less than 50% probe displacement at 10 µM inhibitor concentration)
5 | O=C(CCCCCc1ccccc1)c1nc2ncc(-c3ccc(F)cc3)cc2o1 [Compound 58, 1-(6-(4-fluorophenyl)oxazolo[4,5-b]pyridin-2-yl)-6-phenylhexan-1-one] | N/A (N/A means less than 50% probe displacement at 10 µM inhibitor concentration)
6 | O=C(CCCCCc1ccccc1)c1nc2ncc(-c3ccncc3)cc2o1 [Compound 37, 6-phenyl-1-(6-(pyridin-4-yl)oxazolo[4,5-b]pyridin-2-yl)hexan-1-one] | N/A (N/A means less than 50% probe displacement at 10 µM inhibitor concentration)
7 | Cc1ccc(-c2cnc3nc(C(=O)Cc4ccccc4)oc3c2)cc1 [Compound 34, 2-phenyl-1-(6-(p-tolyl)oxazolo[4,5-b]pyridin-2-yl)ethan-1-one] | N/A (N/A means less than 50% probe displacement at 10 µM inhibitor concentration)
8 | O=C(CCCCCc1ccccc1)c1nc2ncc(-c3nnn[nH]3)cc2o1 [Compound 45, 1-(6-(1H-tetrazol-5-yl)oxazolo[4,5-b]pyridin-2-yl)-6-phenylhexan-1-one] | N/A (N/A means less than 50% probe displacement at 10 µM inhibitor concentration)
9 | Cc1ccc(-c2cnc3nc(C(=O)CCC(F)(F)F)oc3c2)cc1 [Compound 42, 4,4,4-trifluoro-1-(6-(p-tolyl)oxazolo[4,5-b]pyridin-2-yl)butan-1-one] | N/A (N/A means less than 50% probe displacement at 10 µM inhibitor concentration)
10 | O=C(CCCCCc1ccccc1)c1nc2ncc(-c3ccc(Cl)cc3)cc2o1 [Compound 40, 1-(6-(4-chlorophenyl)oxazolo[4,5-b]pyridin-2-yl)-6-phenylhexan-1-one] | N/A (N/A means less than 50% probe displacement at 10 µM inhibitor concentration)
11 | Cc1ccc(-c2cnc3nc(C(=O)CCCc4ccccc4)oc3c2)cc1 [Compound 36, 4-phenyl-1-(6-(p-tolyl)oxazolo[4,5-b]pyridin-2-yl)butan-1-one] | N/A (N/A means less than 50% probe displacement at 10 µM inhibitor concentration)
12 | O=C(CCCCCc1ccccc1)c1nc2ncc(-c3cccc(F)c3)cc2o1 [Compound 52, 1-(6-(3-fluorophenyl)oxazolo[4,5-b]pyridin-2-yl)-6-phenylhexan-1-one] | N/A (N/A means less than 50% probe displacement at 10 µM inhibitor concentration)
13 | O=C(CCCCCc1ccccc1)c1nc2ncc(-c3ccccc3Cl)cc2o1 [Compound 38, 1-(6-(2-chlorophenyl)oxazolo[4,5-b]pyridin-2-yl)-6-phenylhexan-1-one] | N/A (N/A means less than 50% probe displacement at 10 µM inhibitor concentration)
14 | O=C(CCCCCc1ccccc1)c1nc2ncc(-c3ccccc3F)cc2o1 [Compound 57, 1-(6-(2-fluorophenyl)oxazolo[4,5-b]pyridin-2-yl)-6-phenylhexan-1-one] | N/A (N/A means less than 50% probe displacement at 10 µM inhibitor concentration)
15 | Cc1ccccc1-c1cnc2nc(C(=O)CCCCCc3ccccc3)oc2c1 [Compound 54, 6-phenyl-1-(6-(o-tolyl)oxazolo[4,5-b]pyridin-2-yl)hexan-1-one] | N/A (N/A means less than 50% probe displacement at 10 µM inhibitor concentration)
16 | Cn1cccc1-c1cnc2nc(C(=O)CCCCCc3ccccc3)oc2c1 [Compound 46, 1-(6-(1-methyl-1H-pyrrol-2-yl)oxazolo[4,5-b]pyridin-2-yl)-6-phenylhexan-1-one] | N/A (N/A means less than 50% probe displacement at 10 µM inhibitor concentration)
17 | Cc1ccccc1-c1cnc2nc(C(=O)CCCCOc3ccc(F)cc3)oc2c1 [Compound 49, 5-(4-fluorophenoxy)-1-(6-(o-tolyl)oxazolo[4,5-b]pyridin-2-yl)pentan-1-one] | N/A (N/A means less than 50% probe displacement at 10 µM inhibitor concentration)
18 | N#Cc1ccc(-c2cnc3nc(C(=O)CCCCCc4ccccc4)oc3c2)cc1 [Compound 51, 4-(2-(6-phenylhexanoyl)oxazolo[4,5-b]pyridin-6-yl)benzonitrile] | N/A (N/A means less than 50% probe displacement at 10 µM inhibitor concentration)
19 | COc1ccc(-c2cnc3nc(C(=O)CCCCCc4ccccc4)oc3c2)cc1 [Compound 41, 1-(6-(4-methoxyphenyl)oxazolo[4,5-b]pyridin-2-yl)-6-phenylhexan-1-one] | N/A (N/A means less than 50% probe displacement at 10 µM inhibitor concentration)
20 | O=C(CCCCCc1ccncc1)c1nc2ncc(-c3ccccc3F)cc2o1 [Compound 48, 1-(6-(2-fluorophenyl)oxazolo[4,5-b]pyridin-2-yl)-6-(pyridin-4-yl)hexan-1-one] | N/A (N/A means less than 50% probe displacement at 10 µM inhibitor concentration)
21 | Cc1cccc(C)c1-c1cnc2nc(C(=O)CCCCCc3ccccc3)oc2c1 [Compound 50, 1-(6-(2,6-dimethylphenyl)oxazolo[4,5-b]pyridin-2-yl)-6-phenylhexan-1-one] | N/A (N/A means less than 50% probe displacement at 10 µM inhibitor concentration)
22 | Cc1ccc(-c2cnc3nc(C(=O)CCCCC(F)(F)F)oc3c2)cc1 [Compound 43, 6,6,6-trifluoro-1-(6-(p-tolyl)oxazolo[4,5-b]pyridin-2-yl)hexan-1-one] | N/A (N/A means less than 50% probe displacement at 10 µM inhibitor concentration)
23 | O=C(CCCCCc1ccccc1)c1nc2ncc(-c3ccccn3)cc2o1 [Compound 53, 6-phenyl-1-(6-(pyridin-2-yl)oxazolo[4,5-b]pyridin-2-yl)hexan-1-one] | N/A (N/A means less than 50% probe displacement at 10 µM inhibitor concentration)
24 | Cc1ccccc1-c1cnc2nc(C(=O)CCCCCc3ccc(F)cc3)oc2c1 [Compound 47, 6-(4-fluorophenyl)-1-(6-(o-tolyl)oxazolo[4,5-b]pyridin-2-yl)hexan-1-one] | N/A (N/A means less than 50% probe displacement at 10 µM inhibitor concentration)

— patent publication EP3095787A1, “[…] ACTIVE COMPOUNDS AS DAG-LIPASE INHIBITORS” (Universiteit Leiden, priority 2015, dated 2016)
